Values quoted from earlier work in US20090227460A1, “STABILIZED OIL-IN-WATER EMULSIONS INCLUDING MEPTYL DINOCAP” (Dow AgroSciences LLC, priority 2008, published 2009).

2,6-dinitro-4-octylphenyl crotonates and 2,4-dinitro-6-octylphenyl crotonates in which ‘octyl’ is a mixture of 1-methylheptyl, 1-ethylhexyl and 1-propylpentyl groups [Meptyl Dinocap]
solubility in water: 0.151 µg/mL
